Data taken from patent US20220395472A1 (Dermavant Sciences GmbH, priority 2021, published 2022).

Tested on: adults with plaque psoriasis
Assay: Long-term open-label extension study (PSOARING 3): Physician Global Assessment (PGA), treatment episodes, treatment success, remittive effect
Assay type: in vivo, human
Protocol: This extension study consisted of up to 40 weeks of treatment and a 4 week, safety follow up period.
At the completion of the Week 12 visit of the DB, pivotal Phase 3 study, eligibility of the subjects opting to enroll in this extension study was confirmed. Study visits during the treatment period for all subjects occurred every 4 weeks (±3 days). A phone call was performed at Week 2 (Day 15). Unscheduled visits may have occurred, as needed. Subjects who withdrew from this study before Week 40 returned to the study center for an Early Termination visit. The total duration of this extension study participation was 44 weeks. Subjects in this study were treated as follows based on their PGA score from the Week 12 visit in the DB, pivotal Phase 3 study (Study DMVT 505 3001 or Study DMVT 505 3002).
The PGA was used to assess the primary efficacy endpoint in this study. The PGA is a clinical tool for assessing the current state/severity of a subject's psoriasis at a given time point. It is a static, 5 point, morphological assessment of overall disease severity, as determined by the Investigator, using the clinical characteristics of erythema, scaling, and plaque thickness/elevation as guidelines; higher PGA scores represent more severe disease (0=clear, 1=almost clear, 2=mild, 3=moderate, and 4=severe). The BSA affected was not considered in scoring of the PGA. Variations of the PGA are frequently used in clinical studies because it is a simple assessment, similar to those used in clinical practice. The PGA was performed first, prior to the % BSA, PASI, and LTS assessments.
Time to event parameters, such as the time from treatment success to subsequent worsening (PGA≥2) or duration of treatment episode, were summarized by the Kaplan Meier product limit method using OC.

[1] = Week 40, LOCF, Tapinarof (Pivotal) group
[2] = Week 40, OC, Vehicle (Pivotal) group
[3] = Week 40 LOCF, Tapinarof (Pivotal)
[4] = Week 40 LOCF, Vehicle (Pivotal)
[5] = Week 40 OC, Tapinarof (Pivotal)

SMILES: CC(C)c1c(O)cc(/C=C/c2ccccc2)cc1O [Tapinarof, 3,5-Dihydroxy-4-isopropyl-trans-stilbene]
- PGA Change from Baseline: Improved by 4 (Week 16 OC, Vehicle (Pivotal)): 1 (0.5) n (%)
- PGA Change from Baseline: No Change (Week 16 OC, Vehicle (Pivotal)): 59 (28.2) n (%)
- PGA Change from Baseline: Worsened by 1 (Week 16 OC, Vehicle (Pivotal)): 6 (2.9) n (%)
- PGA Change from Baseline: Worsened by 2 (Week 16 OC, Vehicle (Pivotal)): 2 (1.0) n (%)
- PGA Change from Baseline: Worsened by 3 (Week 16 OC, Vehicle (Pivotal)): 0 (0.0) n (%)
- PGA Change from Baseline: Worsened by 4 (Week 16 OC, Vehicle (Pivotal)): 0 (0.0) n (%)
- Subjects with PGA=0 [1]: 15.4%
- Subjects with PGA=1 [1]: 30.0%
- Subjects with PGA=1 (Week 40, LOCF, Vehicle (Pivotal) group): 27.4%
- Subjects with PGA=1 (Week 40, OC, Tapinarof (Pivotal) group): 30.1%
- Subjects with PGA=0 [2]: 23.9%
- Subjects with PGA=1 [2]: 31.9%
- PGA 0 - Clear (Week 40 LOCF, Overall): 118 (15.8) n (%)
- PGA 1 - Almost Clear (Week 40 LOCF, Overall): 217 (29.1) n (%)
- PGA 2 - Mild (Week 40 LOCF, Overall): 253 (34.0) n (%)
- PGA 3 - Moderate (Week 40 LOCF, Overall): 146 (19.6) n (%)
- PGA 4 - Severe (Week 40 LOCF, Overall): 11 (1.5) n (%)
- PGA Change from Baseline: Improved by 1 (Week 40 LOCF, Overall): 194 (26.1) n (%)
- PGA Change from Baseline: Improved by 2 (Week 40 LOCF, Overall): 88 (11.9) n (%)
- PGA Change from Baseline: Improved by 3 (Week 40 LOCF, Overall): 27 (3.6) n (%)
- PGA Change from Baseline: Improved by 4 (Week 40 LOCF, Overall): 2 (0.3) n (%)
- PGA Change from Baseline: No Change (Week 40 LOCF, Overall): 282 (38.0) n (%)
- PGA Change from Baseline: Worsened by 2 (Week 40 LOCF, Overall): 37 (5.0) n (%)
- PGA Change from Baseline: Worsened by 3 (Week 40 LOCF, Overall): 4 (0.5) n (%)
- PGA Change from Baseline: Worsened by 4 (Week 40 LOCF, Overall): 0 (0.0) n (%)
- PGA 0 - Clear [3]: 76 (15.4) n (%)
- PGA 1 - Almost Clear [3]: 148 (30.0) n (%)
- PGA 2 - Mild [3]: 171 (34.7) n (%)
- PGA 3 - Moderate [3]: 91 (18.5) n (%)
- PGA 4 - Severe [3]: 7 (1.4) n (%)
- PGA Change from Baseline: Improved by 1 [3]: 110 (22.4) n (%)
- PGA Change from Baseline: Improved by 2 [3]: 31 (6.3) n (%)
- PGA Change from Baseline: Improved by 3 [3]: 5 (1.0) n (%)
- PGA Change from Baseline: Improved by 4 [3]: 1 (0.2) n (%)
- PGA Change from Baseline: No Change [3]: 211 (43.0) n (%)
- PGA Change from Baseline: Worsened by 1 [3]: 95 (19.3) n (%)
- PGA Change from Baseline: Worsened by 2 [3]: 34 (6.9) n (%)
- PGA Change from Baseline: Worsened by 3 [3]: 4 (0.8) n (%)
- PGA Change from Baseline: Worsened by 4 [3]: 0 (0.0) n (%)
- PGA 0 - Clear [4]: 42 (16.7) n (%)
- PGA 1 - Almost Clear [4]: 69 (27.4) n (%)
- PGA 2 - Mild [4]: 82 (32.5) n (%)
- PGA 3 - Moderate [4]: 55 (21.8) n (%)
- PGA 4 - Severe [4]: 4 (1.6) n (%)
- PGA Change from Baseline: Improved by 1 [4]: 84 (33.5) n (%)
- PGA Change from Baseline: Improved by 2 [4]: 57 (22.7) n (%)
- PGA Change from Baseline: Improved by 3 [4]: 22 (8.8) n (%)
- PGA Change from Baseline: Improved by 4 [4]: 1 (0.4) n (%)
- PGA Change from Baseline: No Change [4]: 71 (28.3) n (%)
- PGA Change from Baseline: Worsened by 1 [4]: 13 (5.2) n (%)
- PGA Change from Baseline: Worsened by 2 [4]: 3 (1.2) n (%)
- PGA Change from Baseline: Worsened by 3 [4]: 0 (0.0) n (%)
- PGA Change from Baseline: Worsened by 4 [4]: 0 (0.0) n (%)
- PGA 0 - Clear (Week 40 OC, Overall): 68 (19.5) n (%)
- PGA 1 - Almost Clear (Week 40 OC, Overall): 107 (30.7) n (%)
- PGA 2 - Mild (Week 40 OC, Overall): 116 (33.2) n (%)
- PGA 3 - Moderate (Week 40 OC, Overall): 57 (16.3) n (%)
- PGA 4 - Severe (Week 40 OC, Overall): 1 (0.3) n (%)
- PGA Change from Baseline: Improved by 1 (Week 40 OC, Overall): 99 (28.4) n (%)
- PGA Change from Baseline: Improved by 2 (Week 40 OC, Overall): 46 (13.2) n (%)
- PGA Change from Baseline: Improved by 3 (Week 40 OC, Overall): 19 (5.4) n (%)
- PGA Change from Baseline: Improved by 4 (Week 40 OC, Overall): 1 (0.3) n (%)
- PGA Change from Baseline: No Change (Week 40 OC, Overall): 105 (30.1) n (%)
- PGA Change from Baseline: Worsened by 1 (Week 40 OC, Overall): 55 (15.8) n (%)
- PGA Change from Baseline: Worsened by 2 (Week 40 OC, Overall): 21 (6.0) n (%)
- PGA Change from Baseline: Worsened by 3 (Week 40 OC, Overall): 3 (0.9) n (%)
- PGA Change from Baseline: Worsened by 4 (Week 40 OC, Overall): 0 (0.0) n (%)
- PGA 0 - Clear [5]: 41 (17.4) n (%)
- PGA 1 - Almost Clear [5]: 71 (30.1) n (%)
- PGA 2 - Mild [5]: 81 (34.3) n (%)
- PGA 3 - Moderate [5]: 42 (17.8) n (%)
- PGA 4 - Severe [5]: 1 (0.4) n (%)
- PGA Change from Baseline: Improved by 1 [5]: 58 (24.6) n (%)
- PGA Change from Baseline: Improved by 2 [5]: 19 (8.1) n (%)
- PGA Change from Baseline: Improved by 3 [5]: 2 (0.8) n (%)
- PGA Change from Baseline: Improved by 4 [5]: 0 (0.0) n (%)
- PGA Change from Baseline: No Change [5]: 86 (36.4) n (%)
- PGA Change from Baseline: Worsened by 1 [5]: 48 (20.3) n (%)
- PGA Change from Baseline: Worsened by 2 [5]: 20 (8.5) n (%)
- PGA Change from Baseline: Worsened by 3 [5]: 3 (1.3) n (%)
- PGA Change from Baseline: Worsened by 4 [5]: 0 (0.0) n (%)
- PGA 0 - Clear (Week 40 OC, Vehicle (Pivotal)): 27 (23.9) n (%)
- PGA 1 - Almost Clear (Week 40 OC, Vehicle (Pivotal)): 36 (31.9) n (%)
